US9593149B2, “Amylin and calcitonin receptor agonist” (Novo Nordisk A/S, priority 2014, dated 2017)
pEC50, pIC50: −log10 of the molar value. ≈ marks a conversion by molar mass, not a printed value. Numbered stars: 1 amine (or outer) side, 2 acyl side, 3 side chain; on linkers, the order of the positions; unused ones are H or OH. Peptide text beside a SMILES is read from it. * marks the point of attachment. C18 diacid = O=C(O)CCCCCCCCCCCCCCCCC(=O)*; γGlu = O=C(O)[C@H](CCC(=O)[*:2])N[*:1]

Legend:
[1] = target: T1, human amylin 3(a) receptor (human calcitonin receptor + RAMP-3), BHK570 cells (Homo sapiens, UniProt O60896+P30988); assay: Assay (II)b functional CRE-luciferase assay without albumin, human amylin receptor; type: cell-based; details: Tested without HSA; read-out: hAmylin-R funct. EC50
T1 construct: host or cells: BHK570
T1 sequence (O60896 24-148, one chain of several): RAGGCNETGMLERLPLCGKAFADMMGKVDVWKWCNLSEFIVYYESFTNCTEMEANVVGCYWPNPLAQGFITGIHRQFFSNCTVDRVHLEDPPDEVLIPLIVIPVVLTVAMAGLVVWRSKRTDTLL
Outline: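 Agonism measured as CRE-driven luciferase luminescence after 3 h sample exposure at 37 °C, without albumin (0.1% ovalbumin, Hepes pH 7.4 medium). Reporter cells: BHK570 carrying human calcitonin receptor, co-transfected with RAMP-3 to form the amylin 3(a) receptor.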

[2] = target: T2, human calcitonin (a) receptor, BHK570 cells (Homo sapiens, UniProt P30988); assay: Assay (II)b functional CRE-luciferase assay without albumin, human calcitonin receptor; type: cell-based; details: Tested without HSA; read-out: hCTR funct. EC50
T2 construct: host or cells: BHK570
T2 sequence (P30988 25-474): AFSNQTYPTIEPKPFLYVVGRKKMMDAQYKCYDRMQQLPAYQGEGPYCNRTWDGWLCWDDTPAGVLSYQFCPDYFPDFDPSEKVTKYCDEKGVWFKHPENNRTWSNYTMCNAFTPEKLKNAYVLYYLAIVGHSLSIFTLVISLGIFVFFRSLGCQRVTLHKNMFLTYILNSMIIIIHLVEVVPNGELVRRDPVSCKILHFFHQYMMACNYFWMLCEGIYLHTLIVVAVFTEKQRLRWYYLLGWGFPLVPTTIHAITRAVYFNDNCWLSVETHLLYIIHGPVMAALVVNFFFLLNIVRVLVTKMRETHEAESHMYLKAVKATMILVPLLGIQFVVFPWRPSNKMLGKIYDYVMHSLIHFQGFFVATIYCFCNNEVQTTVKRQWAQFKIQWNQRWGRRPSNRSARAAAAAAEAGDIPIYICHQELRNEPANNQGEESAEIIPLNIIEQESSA
Outline: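 BHK570 cells stably expressing human calcitonin receptor with CRE-luciferase reporter, plus RAMP-3 for the amylin 3(a) line. Cells stimulated 3 hours at 37 °C in albumin-free assay medium (0.1% ovalbumin, 10 mM Hepes pH 7.4); cAMP-driven luciferase read by luminescence.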

[3] = Assay (IV) determination of solubility; type: physicochemical
Procedure: Assay (IV)—Determination of Solubility
The mimylin peptide was dissolved in water at ˜500 nmol/ml and mixed 1:1 with a series of buffers (100 mM glycylglycine pH 3.0, 100 mM glycylglycine pH 4.0, 100 mM glycylglycine pH 5.0, 100 mM bistrispropane pH 6.0, 100 mM bistrispropane pH 6.5, 100 mM bistrispropane pH 7.0, 100 mM bistrispropane pH 7.5, 100 mM bistrispropane pH 8.0).

[4] = target: T3, human amylin receptor (human calcitonin receptor + human RAMP3), BHK tk'ts 13 cells (Homo sapiens, UniProt O60896+P30988); assay: Assay (Va) binding to the human amylin receptor (whole cell); details: read-out: hAmylin-R binding IC50
T3 construct: expressed in transfected cells; host or cells: BHK tk'ts 13
T3 sequence (O60896 24-148, one chain of several): as the sequence (O60896 24-148, one chain of several) above
Procedure: The day before the assay the cells were Seeded into Poly-D-Lysin coated 384W Opaque White, BD BioCoat plates (10000 cells/well) and Incubated overnight at 37° C., 5% CO2, 95% humidity.

[5] = target: T4, human calcitonin receptor, BHK tk'ts 13 cells (Homo sapiens, UniProt P30988); assay: Assay (VIIa) binding to the human calcitonin receptor (whole cell); details: read-out: hCT-R binding IC50
T4 construct: expressed in transfected cells; host or cells: BHK tk'ts 13
T4 sequence (P30988 25-474): T2 sequence (P30988 25-474)
Procedure: Assay (VIIa)—Determination of Binding to the Human Calcitonin Receptor (Whole Cell Binding)
The binding assay was performed using a BHK tk'ts 13 cell line was stably transfected with the human calcitonin receptor, and a CRE-responsive luciferase reporter gene.
The day before the assay the cells were Seeded into Poly-D-Lysin coated 384W Opaque White, BD BioCoat plates (10000 cells/well) and Incubated overnight at 37° C., 5% CO2, 95% humidity. Then, the cells were washed in HBSS (4° C.), and incubated overnight at 4° C. in a binding buffer containing test compounds, 50 pM [125I]-human calcitonin, media w/o phenol red, 500 ml 0.1% ovalbumin (5 ml 10% ovalbumin) 10 mM Hepes (5 ml 1M) 1× Glutamin (5 ml 100×) 1% P/S (5 ml 100%) Complete (1 tablet/50 ml) 0.1% Pluronic F68®. The morning after, the plates were washed three times in HBSS (4° C.), and lyzed in Lysis buffer (0.1 M NaOH), 1% SDS. Scintillation cocktail (MicroScint40®) was added and the plates were shaken at 500 rpm for a short period. The plate was incubated at room temperature in the dark for 1 hour and Read on a TopCounter™ (Packard). The IC50 was calculated using (one site binding competition analysis) GraphPad Prism5 as a measure of receptor affinity. Assay (VIII)—Determination of Binding to the Rat Calcitonin Receptor

[6] = target: T1, human amylin 3(a) receptor (human calcitonin receptor + RAMP-3), BHK570 cells; assay: Assay (II)a functional CRE-luciferase assay with albumin, human amylin receptor; type: cell-based; details: Tested with HSA; read-out: hAmylin-R funct. EC50
Outline: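 BHK570 cells stably carry a CRE-luciferase reporter and the calcitonin receptor; co-transfected RAMP-3 gives the amylin 3(a) receptor line. Cells were treated for 3 h at 37 °C in DMEM with 10% FBS and 10 mM Hepes, pH 7.4. cAMP-driven luciferase was read by LucLite luminescence after 30 min at RT.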

SMILES	pEC50 [1]	pEC50 [2]	solubility at 18 h ([3]; bistrispropane buffer, pH 6.5)	solubility at 18 h ([3]; bistrispropane buffer, pH 7.5)	solubility at 18 h ([3]; bistrispropane buffer, pH 6.0)	solubility at 18 h ([3]; bistrispropane buffer, pH 7.0)	solubility at 18 h ([3]; bistrispropane buffer, pH 8.0)	solubility at 18 h ([3]; glycylglycine buffer, pH 3.0)	solubility at 18 h ([3]; glycylglycine buffer, pH 4.0)	solubility at 18 h ([3]; glycylglycine buffer, pH 5.0)	pIC50 [4]	pIC50 [5]	pEC50 [6]
CC[C@H](C)[C@H](NC(=O)[C@H](C)NC(=O)[C@@H](NC(=O)[C@H](CO)NC(=O)[C@@H](NC(=O)[C@H](CCC(=O)O)NC(=O)[C@H](CO)NC(=O)[C@H](C)NC(=O)[C@H](CCC(=O)O)NC(=O)CCCCCCCCCCCCCCCCC(=O)O)[C@@H](C)CC)[C@@H](C)O)C(=O)N[C@@H](CC(C)C)C(=O)NCC(=O)N[C@@H](CCCNC(=N)N)C(=O)N[C@@H](CC(C)C)C(=O)N[C@@H](CO)C(=O)N[C@@H](C)C(=O)N[C@@H](CCC(=O)O)C(=O)N[C@@H](CC(C)C)C(=O)N[C@@H](Cc1c[nH]cn1)C(=O)N[C@@H](CCC(=O)O)C(=O)N[C@@H](CC(C)C)C(=O)N[C@@H](C)C(=O)N[C@H](C(=O)N[C@@H](CC(C)C)C(=O)N1CCC[C@H]1C(=O)N[C@@H](CCCNC(=N)N)C(=O)N[C@H](C(=O)N[C@@H](CCC(=O)O)C(=O)N[C@H](C(=O)NCC(=O)N1CCC[C@H]1C(=O)N[C@@H](CCC(=O)O)C(=O)N[C@@H](CO)C(=O)N1CCC[C@H]1C(N)=O)[C@@H](C)O)[C@@H](C)O)[C@@H](C)O [compound 25, [N-terminal(C18 diacid), 5I, 9I]mimylin]	11.00	11.15	≥ 200 µM	≥ 200 µM	≥ 200 µM	≥ 200 µM	≥ 200 µM	≥ 200 µM	218 µM (≈ 822 µg/mL)	≥ 200 µM	9.40	9.38	–
CC(C)C[C@H](NC(=O)[C@H](CCC(=O)O)NC(=O)[C@H](Cc1c[nH]cn1)NC(=O)[C@H](CC(C)C)NC(=O)[C@H](CCC(=O)O)NC(=O)[C@H](C)NC(=O)[C@H](CO)NC(=O)[C@H](CC(C)C)NC(=O)[C@H](CCCNC(=N)N)NC(=O)CNC(=O)[C@H](CC(C)C)NC(=O)[C@@H](NC(=O)[C@H](C)NC(=O)[C@@H](NC(=O)[C@@H](NC(=O)[C@H](CC(C)C)NC(=O)[C@H](CCC(=O)O)NC(=O)[C@H](CO)NC(=O)[C@H](C)NC(=O)CC[C@H](NC(=O)CCCCCCCCCCCCCCCCC(=O)O)C(=O)O)[C@@H](C)O)[C@@H](C)O)C(C)C)C(=O)N[C@@H](C)C(=O)N[C@H](C(=O)N[C@@H](CC(C)C)C(=O)N1CCC[C@H]1C(=O)N[C@@H](CCCNC(=N)N)C(=O)N[C@H](C(=O)N[C@@H](CCC(=O)O)C(=O)N[C@H](C(=O)NCC(=O)N[C@@H](CO)C(=O)NCC(=O)N[C@H](C(=O)N1CCC[C@H]1C(N)=O)[C@@H](C)O)[C@@H](C)O)[C@@H](C)O)[C@@H](C)O [compound 94, [N-terminal(C18 diacid-gGlu), des1, 6T, 9V, 30S, 31G, 32T]mimylin] ({C18 diacid-γGlu}-ASELTTAVLGRLSAELHELATLPRTETGSGTP-NH2)	10.38	10.52	≥ 200 µM	≥ 200 µM	≥ 200 µM	≥ 200 µM	≥ 200 µM	≥ 200 µM	≥ 200 µM	≥ 200 µM	9.19	9.19	10.52
